From patent publication US6995143B2, “Macrolides with antibacterial activity” (Basilea Pharmaceutica AG, priority 2002, dated 2006)
In brackets after ≈: the same amount, converted by molar mass.

Tests used:
Type in all cases: cell-based
[1] = system: Haemophilus influenzae 12214; test: MIC, standard agar dilution method using HTM medium; conditions: for MIC: read-out: minimum inhibitory concentration (MIC), Strain K
From the text: (§1) The biological activities of compounds of the present invention against Haemophilus influenzae have been determined by standard agar dilution method using HTM medium (National Committee for Clinical Laboratory Standards. 2000. Methods for Dilution Antimicrobial Susceptibility Tests for Bacteria that Grow Aerobically, 5th edition. Approved standard M7-A5. National Committee for Clinical Laboratory Standards, Wayne, Pa.).

[2] = system: Haemophilus influenzae QK50; test: as above; conditions: for MIC: read-out: minimum inhibitory concentration (MIC), Strain L
From the text: as §1

[3] = system: Haemophilus influenzae B1501; test: as above; conditions: for MIC: read-out: minimum inhibitory concentration (MIC), Strain M
From the text: as §1

[4] = system: Haemophilus influenzae QK12/87; test: as above; conditions: for MIC: read-out: minimum inhibitory concentration (MIC), Strain I
From the text: as §1

[5] = system: Staphylococcus aureus 1086; test: MIC, standard microdilution technique; conditions: for MIC: read-out: minimum inhibitory concentration (MIC), Strain B
From the text: (§2) The antibacterial activities of the compounds have been determined by standard microdilution technique (National Committee for Clinical Laboratory Standards. 2000. Methods for Dilution Antimicrobial Susceptibility Tests for Bacteria that Grow Aerobically, 5th edition. Approved standard M7-A5. National Committee for Clinical Laboratory Standards, Wayne, Pa.).

[6] = system: Streptococcus pneumoniae ¼; test: MIC, standard microdilution technique
From the text: as §2

[7] = system: Escherichia coli ATCC 25922; test: MIC, standard microdilution technique; conditions: for MIC: ATCC25922, read-out: minimum inhibitory concentration (MIC), Strain D
From the text: as §2

[8] = system: Streptococcus pneumoniae 12288; test: MIC, standard microdilution technique; conditions: for MIC: read-out: minimum inhibitory concentration (MIC), Strain H
From the text: as §2

[9] = system: Staphylococcus aureus 745; test: MIC, standard microdilution technique; conditions: for MIC: read-out: minimum inhibitory concentration (MIC), Strain C
From the text: as §2

[10] = system: Streptococcus pneumoniae SL199T; test: MIC, standard microdilution technique; conditions: for MIC: read-out: minimum inhibitory concentration (MIC), Strain G
From the text: as §2

[11] = system: Streptococcus pneumoniae l/l; test: MIC, standard microdilution technique
From the text: as §2

[12] = system: Staphylococcus aureus ATCC 29213; test: MIC, standard microdilution technique; conditions: for MIC: ATCC29213, read-out: minimum inhibitory concentration (MIC), Strain A
From the text: as §2

minimum inhibitory concentration (MIC), Strain K [1]	minimum inhibitory concentration (MIC), Strain L [2]	minimum inhibitory concentration (MIC), Strain M [3]	minimum inhibitory concentration (MIC), Strain I [4]	minimum inhibitory concentration (MIC), Strain B [5]	minimum inhibitory concentration (MIC), Strain F [6]	minimum inhibitory concentration (MIC), Strain D [7]	minimum inhibitory concentration (MIC), Strain H [8]	minimum inhibitory concentration (MIC), Strain C [9]	minimum inhibitory concentration (MIC), Strain G [10]	minimum inhibitory concentration (MIC), Strain E [11]	minimum inhibitory concentration (MIC), Strain A [12]	SMILES	other results
1 µg/mL (≈ 1.22 µM)	0.5 µg/mL (≈ 0.608 µM)	0.5 µg/mL (≈ 0.608 µM)	1 µg/mL (≈ 1.22 µM)	<=0.06 μg/ml	<=0.06 μg/ml	32 µg/mL (≈ 38.9 µM)	1 µg/mL (≈ 1.22 µM)	>32 µg/mL	<=0.06 μg/ml	<=0.06 μg/ml	<=0.06 μg/ml	CC[C@H]1OC(=O)[C@@](C)(F)C(=O)[C@H](C)[C@@H](O[C@@H]2O[C@H](C)C[C@H](N(C)C)[C@H]2O)[C@](C)(OC)C[C@@H](C)C(=O)[C@H](C)[C@H]2[C@@H](SCCn3cnc4c(N)ncnc43)C(=O)O[C@@]21C (single isomer, unassigned) [Example 56]	–
4 µg/mL (≈ 4.97 µM)	1 µg/mL (≈ 1.24 µM)	2 µg/mL (≈ 2.48 µM)	1 µg/mL (≈ 1.24 µM)	1 µg/mL (≈ 1.24 µM)	0.125 µg/mL (≈ 0.155 µM)	32 µg/mL (≈ 39.8 µM)	8 µg/mL (≈ 9.94 µM)	>32 µg/mL	0.5 µg/mL (≈ 0.621 µM)	<=0.06 μg/ml	1 µg/mL (≈ 1.24 µM)	CC[C@H]1OC(=O)[C@H](C)C(=O)[C@H](C)[C@@H](O[C@@H]2O[C@H](C)C[C@H](N(C)C)[C@H]2O)[C@](C)(OC)C[C@@H](C)C(=O)[C@H](C)[C@H]2[C@@H](SCCNc3ncnc4[nH]cnc34)C(=O)O[C@@]21C [Example 51]	–
4 µg/mL (≈ 4.6 µM)	4 µg/mL (≈ 4.6 µM)	4 µg/mL (≈ 4.6 µM)	4 µg/mL (≈ 4.6 µM)	0.5 µg/mL (≈ 0.575 µM)	<=0.06 μg/ml	>32 µg/mL	8 µg/mL (≈ 9.21 µM)	>32 µg/mL	0.5 µg/mL (≈ 0.575 µM)	<=0.06 μg/ml	0.5 µg/mL (≈ 0.575 µM)	CC[C@H]1OC(=O)[C@@](C)(F)C(=O)[C@H](C)[C@@H](O[C@@H]2O[C@H](C)C[C@H](N(C)C)[C@H]2O)[C@](C)(OC)C[C@@H](C)C(=O)[C@H](C)[C@H]2[C@@H](S(=O)(=O)CCCn3cnc4c(N)ncnc43)C(=O)O[C@@]21C [Example 58]	–

The remaining lines, values behind:

SMILES	minimum inhibitory concentration (MIC), Strain K [1]	minimum inhibitory concentration (MIC), Strain L [2]	minimum inhibitory concentration (MIC), Strain M [3]	minimum inhibitory concentration (MIC), Strain I [4]	minimum inhibitory concentration (MIC), Strain B [5]	minimum inhibitory concentration (MIC), Strain F [6]	minimum inhibitory concentration (MIC), Strain D [7]	minimum inhibitory concentration (MIC), Strain H [8]	minimum inhibitory concentration (MIC), Strain C [9]	minimum inhibitory concentration (MIC), Strain G [10]	minimum inhibitory concentration (MIC), Strain E [11]	minimum inhibitory concentration (MIC), Strain A [12]	other results
CC[C@H]1OC(=O)[C@@](C)(F)C(=O)[C@H](C)[C@@H](O[C@@H]2O[C@H](C)C[C@H](N(C)C)[C@H]2O)[C@](C)(OC)C[C@@H](C)C(=O)[C@H](C)[C@H]2[C@@H](SCCOCn3cc(C)c(=O)[nH]c3=O)C(=O)O[C@@]21C (single isomer, unassigned) [Example 14, (3R or S) 3aR, 4R or S, 6R, 8R, 9R, 10R, 12S, 15R, 15aS)-15-Ethyl-12-fluorooctahydro-8-methoxy-4,6,8,10,12,15a-hexamethyl-3-[[2-[[5-methyl-2,4-(1H,3H)-pyrimidinedione-1-yl]methoxy]ethyl]thio]-9-[[3,4,6-trideoxy-3-(dimethylamino)-β-D-xylo-hexopyranosyl]oxy]-2H-furo [2,3-c] oxacyclotetradecin-2,5,11,13 (3H,6H,12H)-tetrone]	2 µg/mL (≈ 2.37 µM)	2 µg/mL (≈ 2.37 µM)	2 µg/mL (≈ 2.37 µM)	2 µg/mL (≈ 2.37 µM)	<=0.06 μg/ml	2 µg/mL (≈ 2.37 µM)	>32 µg/mL	16 µg/mL (≈ 19 µM)	>32 µg/mL	1 µg/mL (≈ 1.18 µM)	<=0.06 μg/ml	<=0.06 μg/ml	–
CC[C@H]1OC(=O)[C@H](C)C(=O)[C@H](C)[C@@H](O[C@@H]2O[C@H](C)C[C@H](N(C)C)[C@H]2O)[C@](C)(OC)C[C@@H](C)C(=O)[C@H](C)[C@H]2[C@@H](SCCNC(=O)c3ccc(-n4cccn4)nc3)C(=O)O[C@@]21C (single isomer, unassigned) [Example 50]	16 µg/mL (≈ 18.6 µM)	8 µg/mL (≈ 9.32 µM)	4 µg/mL (≈ 4.66 µM)	8 µg/mL (≈ 9.32 µM)	0.125 µg/mL (≈ 0.146 µM)	32 µg/mL (≈ 37.3 µM)	>32 µg/mL	>32 µg/mL	>32 µg/mL	32 µg/mL (≈ 37.3 µM)	<=0.06 μg/ml	0.25 µg/mL (≈ 0.291 µM)	–
CC[C@H]1OC(=O)[C@H](C)C(=O)[C@H](C)[C@@H](O[C@@H]2O[C@H](C)C[C@H](N(C)C)[C@H]2O)[C@](C)(OC)C[C@@H](C)C(=O)[C@H](C)[C@H]2[C@@H](SCCN(C)CCn3cnc4c(N)ncnc43)C(=O)O[C@@]21C [Example 9]	16 µg/mL (≈ 18.6 µM)	8 µg/mL (≈ 9.28 µM)	4 µg/mL (≈ 4.64 µM)	8 µg/mL (≈ 9.28 µM)	1 µg/mL (≈ 1.16 µM)	0.5 µg/mL (≈ 0.58 µM)	>32 µg/mL	32 µg/mL (≈ 37.1 µM)	>32 µg/mL	8 µg/mL (≈ 9.28 µM)	<=0.06 μg/ml	1 µg/mL (≈ 1.16 µM)	–
CC[C@H]1OC(=O)[C@@](C)(F)C(=O)[C@H](C)[C@@H](O[C@@H]2O[C@H](C)C[C@H](N(C)C)[C@H]2O)[C@](C)(OC)C[C@@H](C)C(=O)[C@H](C)[C@H]2[C@@H](SCCn3cnc(-c4cccnc4)n3)C(=O)O[C@@]21C (single isomer, unassigned) [Example 12, (3R or S, 3aR, 4R or S, 6R, 8R, 9R, 10R, 12S, 15R, 15aS)-15-Ethyl-12-fluorooctahydro-8-methoxy-4,6,8,10,12,15a-hexamethyl-3-[[2-[3-(3-pyridinyl)-1H-1,2,4-triazole-1-yl]ethyl]thio]-9-[[3,4,6-trideoxy-3-(dimethylamino)-β-D-xylo-hexopyranosyl]oxy]-2H-furo [2,3-c] oxacyclotetradecin-2,5,11,13 (3H,6H,12H)-tetrone]	–	–	–	–	–	–	–	–	–	–	–	–	MIC [1]: 4 µg/mL (≈ 4.8 µM); MIC [2]: 4 µg/mL (≈ 4.8 µM); MIC [3]: 4 µg/mL (≈ 4.8 µM); MIC [4]: 8 µg/mL (≈ 9.59 µM); MIC [5]: ≤ 0.06 µg/mL; MIC ([6]; read-out: minimum inhibitory concentration (MIC), Strain F): ≤ 0.06 µg/mL; MIC [7]: > 32 µg/mL; MIC [8]: 4 µg/mL (≈ 4.8 µM); MIC [9]: > 32 µg/mL; MIC [10]: 0.25 µg/mL (≈ 0.3 µM); MIC ([11]; read-out: minimum inhibitory concentration (MIC), Strain E): ≤ 0.06 µg/mL; MIC [12]: ≤ 0.06 µg/mL
CC[C@H]1OC(=O)[C@H](C)C(=O)[C@H](C)[C@@H](O[C@@H]2O[C@H](C)C[C@H](N(C)C)[C@H]2O)[C@](C)(OC)C[C@@H](C)C(=O)[C@H](C)[C@H]2[C@@H](S(=O)(=O)CCNC(=O)c3cccnc3)C(=O)O[C@@]21C (single isomer, unassigned) [Example 43, (3R or S, 3aR, 4R or S, 6R, 8R, 9R, 10R, 12R, 15R, 15aS) -15-Ethyloctahydro-8-methoxy-4,6,8,10,12,15a-hexamethyl-3-[[2-[(3-pyridinylcarbonyl)amino]ethyl]sulfonyl]-9-[[-3,4,6-trideoxy-3-(dimethylamino)-β-D-xylo-hexopyranosyl]oxy]-2H-furo [2,3-c] oxacyclotetradecin-2,5,11,13 (3H,6H,12H)-tetrone]	–	–	–	–	–	–	–	–	–	–	–	–	MIC [1]: 16 µg/mL (≈ 19.4 µM); MIC [2]: 16 µg/mL (≈ 19.4 µM); MIC [3]: 8 µg/mL (≈ 9.71 µM); MIC [4]: 16 µg/mL (≈ 19.4 µM); MIC [5]: 1 µg/mL (≈ 1.21 µM); MIC [7]: > 32 µg/mL; MIC [8]: > 32 µg/mL; MIC [9]: > 32 µg/mL; MIC [10]: 32 µg/mL (≈ 38.8 µM); MIC [12]: 2 µg/mL (≈ 2.43 µM)
